Converted amounts (≈) assume the structure as drawn. Like-named read-outs stand apart in the source and are kept apart here. Positions of bridges follow the written chain, without caps; N, C: chain ends. Non-standard residues stand in square brackets, D forms with d. Residues, ends and D or L forms follow the SMILES beside them. Lys(N3) = [N-]=[N+]=NCCCC[C@H](N)C(=O)O; R8 = C=CCCCCCC[C@@](C)(N)C(=O)O; Cba = N[C@@H](CC1CCC1)C(=O)O; S5 = C=CCCC[C@](C)(N)C(=O)O; βAla = NCCC(=O)O
How the values were obtained:
[1] = physchem
[2] = Experimental LogD (partition coefficient); settings: for logD: not stated, Partition Coeff LogD
[3] = in vitro
Summary of the method: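 Azido-peptide permeability was read as loss of NanoBRET signal (donor 450 nm, acceptor 610 nm) after adding NanoBret618-azide at 10 μM final.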

[4] = Lactate dehydrogenase (LDH) release assay; format: cell-based
Summary of the method: (§1)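 HCT116 cells stably carrying a p53-responsive β-lactamase reporter, seeded at 8000 cells/well, exposed to compound with 0.5% final DMSO. LDH release read with the CytoTox-ONE membrane integrity kit. Values are geometric means of at least three biological replicates.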

[5] = Solubility assay (kinetic solubility, PBS pH 7); format: physicochemical; settings: for solubility kinetic: read-out: Solubility
Summary of the method: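 Std: 10 mM stock → 100 µM in ACN/MeOH/DMSO (10:80:10). Sol. [µM] = (sample peak area / std peak area) × std conc.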

[6] = tested on: HCT116 cells; experiment: Lactate dehydrogenase (LDH) release assay; format: cell-based
Summary of the method: as §1

[7] = Nanoclick permeability assay EC50
[8] = pH 7, aqueous buffer, kinetic from dmso stock, pH 7, PBS

CC(=O)N[C@@H](CCCCN=[N+]=[N-])C(=O)NCCC(=O)N[C@@H](CC(C)C)C(=O)N[C@H](C(=O)N[C@@H](Cc1ccccc1)C(=O)N[C@]1(C)CCCCCCC=CCCC[C@@](C)(C(=O)N[C@@H](CO)C(=O)N[C@@H](C)C(=O)N[C@@H](C)C(N)=O)NC(=O)[C@H](CC2CCC2)NC(=O)C(C)(C)NC(=O)[C@H](C)NC(=O)[C@H](Cc2c[nH]c3ccccc23)NC(=O)[C@H](Cc2ccc(O)cc2)NC(=O)[C@H](CCC(=O)O)NC1=O)[C@@H](C)O [MP-171]
EPSA [1]: 222 A^2
logD [2]: 3
cell entry EC50 [3, 7]: 195 nM
EC50 ([4]; LDH: Cytotoxicity assay EC50): > 50000 nM
solubility kinetic [5, 8]: 34 µM (≈ 65.5 µg/mL)

CC(=O)N[C@@H](CCCCN=[N+]=[N-])C(=O)NCCC(=O)N[C@@H](CC(C)C)C(=O)N[C@H](C(=O)N[C@@H](Cc1ccccc1)C(=O)N[C@]1(C)CCCCCCC=CCCC[C@@](C)(C(=O)NC(C)(C)C(=O)N[C@@H](C)C(=O)N[C@@H](C)C(N)=O)NC(=O)[C@H](CC2CCC2)NC(=O)[C@H](CCC(N)=O)NC(=O)[C@H](C)NC(=O)[C@H](Cc2c[nH]c3ccccc23)NC(=O)[C@H](Cc2ccc(O)cc2)NC(=O)[C@H](CCC(=O)O)NC1=O)[C@@H](C)O [MP-172]
EPSA [1]: 225 A^2
logD [2]: 3.17
cell entry EC50 [3, 7]: 123 nM
solubility kinetic [5, 8]: 140 µM (≈ 276 µg/mL)

CC(=O)N[C@@H](CCCCN=[N+]=[N-])C(=O)NCCC(=O)N[C@@H](CCCNC(=N)N)C(=O)N[C@H](C(=O)N[C@@H](Cc1ccccc1)C(=O)N[C@]1(C)CCCCCCC=CCCC[C@@](C)(C(=O)N[C@@H](CCCCN)C(=O)N[C@@H](C)C(=O)N[C@@H](C)C(N)=O)NC(=O)[C@H](CC2CCC2)NC(=O)[C@H](CCCNC(=N)N)NC(=O)[C@H](C)NC(=O)[C@H](Cc2c[nH]c3ccccc23)NC(=O)[C@H](Cc2ccc(O)cc2)NC(=O)[C@H](CCC(=O)O)NC1=O)[C@@H](C)O [MP-537] (Ac-[Lys(N3)][βAla]RTF[R8]EYWAR[Cba][S5]KAA-NH2; staple 6-13)
EPSA [1]: 224 A^2
logD [2]: 2.48
cell entry EC50 [3, 7]: 87.9 nM
EC50 ([4]; LDH: Cytotoxicity assay EC50): 7290 nM
solubility kinetic [5, 8]: 140 µM (≈ 292 µg/mL)

CC(=O)N[C@@H](CCCCN=[N+]=[N-])C(=O)NCCC(=O)N[C@@H](CCCNC(=N)N)C(=O)N[C@H](C(=O)N[C@@H](Cc1ccccc1)C(=O)N[C@]1(C)CCCCCCC=CCCC[C@@](C)(C(=O)N[C@@H](CO)C(=O)N[C@@H](C)C(=O)N[C@@H](C)C(N)=O)NC(=O)[C@H](CC2CCC2)NC(=O)[C@H](CCCNC(=N)N)NC(=O)[C@H](C)NC(=O)[C@H](Cc2c[nH]c3ccccc23)NC(=O)[C@H](Cc2ccccc2)NC(=O)[C@H](CCC(=O)O)NC1=O)[C@@H](C)O [MP-538] (Ac-[Lys(N3)][βAla]RTF[R8]EFWAR[Cba][S5]SAA-NH2; staple 6-13)
EPSA [1]: 223 A^2
logD [2]: 3.16
cell entry EC50 [3, 7]: 230 nM
EC50 ([4]; LDH: Cytotoxicity assay EC50): 6780 nM
solubility kinetic [5, 8]: 5 µM (≈ 10.1 µg/mL)

CC(=O)N[C@@H](CCCCN=[N+]=[N-])C(=O)NCCC(=O)N[C@@H](CC(C)C)C(=O)N[C@H](C(=O)N[C@@H](Cc1ccccc1)C(=O)N[C@]1(C)CCCCCCC=CCCC[C@@](C)(C(=O)N[C@@H](CO)C(=O)N[C@@H](Cc2ccccc2)C(=O)N[C@@H](Cc2ccccc2)C(N)=O)NC(=O)[C@H](CC2CCC2)NC(=O)[C@H](CCC(N)=O)NC(=O)[C@H](C)NC(=O)[C@H](Cc2c[nH]c3ccccc23)NC(=O)[C@H](Cc2ccc(O)cc2)NC(=O)[C@H](Cc2c[nH]c3ccccc23)NC1=O)[C@@H](C)O [MP-542] (Ac-[Lys(N3)][βAla]LTF[R8]WYWAQ[Cba][S5]SFF-NH2; staple 6-13)
EPSA [1]: 242 A^2
logD [2]: 4.46
cell entry EC50 [3, 7]: 93.2 nM
EC50 ([4]; LDH: Cytotoxicity assay EC50): > 50600 nM
Solubility ([5]; pH 7, PBS): Poorly Behaved

CC(=O)N[C@@H](CCCCN=[N+]=[N-])C(=O)NCCC(=O)N[C@@H](Cc1ccc(O)cc1)C(=O)N[C@H](C(=O)N[C@@H](Cc1ccccc1)C(=O)N[C@]1(C)CCCCCCC=CCCC[C@@](C)(C(=O)N[C@@H](CO)C(=O)N[C@@H](C)C(=O)N[C@@H](C)C(N)=O)NC(=O)[C@H](CC2CCC2)NC(=O)[C@H](Cc2c[nH]c3ccccc23)NC(=O)[C@H](C)NC(=O)[C@H](Cc2c[nH]c3ccccc23)NC(=O)[C@H](Cc2ccc(O)cc2)NC(=O)[C@H](Cc2c[nH]c3ccccc23)NC1=O)[C@@H](C)O [MP-540] (Ac-[Lys(N3)][βAla]YTF[R8]WYWAW[Cba][S5]SAA-NH2; staple 6-13)
EPSA [1]: 253 A^2
logD [2]: 3.67
cell entry EC50 [3, 7]: 94.2 nM
EC50 ([4]; LDH: Cytotoxicity assay EC50): > 50600 nM
solubility kinetic [5, 8]: 2 µM (≈ 4.27 µg/mL)

CC(=O)N[C@@H](CCCCN=[N+]=[N-])C(=O)NCCC(=O)N[C@@H](CC(C)C)C(=O)N[C@H](C(=O)N[C@@H](Cc1ccccc1)C(=O)N[C@]1(C)CCCCCCC=CCCC[C@@](C)(C(=O)N[C@@H](CO)C(=O)N[C@@H](C)C(=O)N[C@@H](CC(C)C)C(N)=O)NC(=O)[C@H](CC2CCC2)NC(=O)[C@H](CCC(N)=O)NC(=O)[C@H](C)NC(=O)[C@H](Cc2c[nH]c3ccccc23)NC(=O)[C@H](Cc2c[nH]c3ccccc23)NC(=O)[C@H](Cc2c[nH]c3ccccc23)NC1=O)[C@@H](C)O [MP-544] (Ac-[Lys(N3)][βAla]LTF[R8]WWWAQ[Cba][S5]SAL-NH2; staple 6-13)
EPSA [1]: 227 A^2
Partition Coeff LogD [2]: Poorly Behaved
cell entry EC50 [3, 7]: 124 nM
EC50 ([4]; LDH: Cytotoxicity assay EC50): > 50600 nM
Solubility ([5]; pH 7, PBS): Poorly Behaved

CC(=O)N[C@@H](CCCCN=[N+]=[N-])C(=O)NCCC(=O)N[C@@H](CC(C)C)C(=O)N[C@H](C(=O)N[C@@H](Cc1ccccc1)C(=O)N[C@]1(C)CCCCCCC=CCCC[C@@](C)(C(=O)N[C@@H](C)C(=O)N[C@@H](C)C(=O)N[C@@H](C)C(N)=O)NC(=O)[C@H](CC2CCC2)NC(=O)[C@H](CCC(N)=O)NC(=O)[C@H](C)NC(=O)[C@H](Cc2c[nH]c3ccccc23)NC(=O)[C@H](Cc2ccc(O)cc2)NC(=O)[C@H](CCC(=O)O)NC1=O)[C@@H](C)O [MP-8956, AZIDE-ATSP-7041 (S12A)] (Ac-[Lys(N3)][βAla]LTF[R8]EYWAQ[Cba][S5]AAA-NH2; staple 6-13)
EPSA [1]: 217 A^2
cell entry EC50 [3]: 411 nM
EC50 ([4]; 0% FBS 4Hr, read-out: LDH: Cytotoxicity assay EC50): > 50000 nM
EC50 ([4]; 10% FBS 4Hr, read-out: LDH: Cytotoxicity assay EC50): > 50000 nM
LDH: Cytotoxicity assay % Effect ([6]; 0% FBS 4Hr): 18.05%
LDH: Cytotoxicity assay % Effect ([6]; 10% FBS 4Hr): 3.25%
solubility kinetic [5, 8]: 108 µM (≈ 211 µg/mL)
solubility kinetic [5]: 108 µM (≈ 211 µg/mL)

CC(=O)N[C@@H](CCCCN=[N+]=[N-])C(=O)NCCC(=O)N[C@@H](CCCNC(=N)N)C(=O)N[C@H](C(=O)N[C@@H](Cc1ccccc1)C(=O)N[C@]1(C)CCCCCCC=CCCC[C@@](C)(C(=O)N[C@@H](CO)C(=O)N[C@@H](C)C(=O)N[C@@H](CC(C)C)C(N)=O)NC(=O)[C@H](CC2CCC2)NC(=O)[C@H](CCC(N)=O)NC(=O)[C@H](CC(C)C)NC(=O)[C@H](Cc2c[nH]c3ccccc23)NC(=O)[C@H](Cc2ccc(O)cc2)NC(=O)[C@H](CCC(=O)O)NC1=O)[C@@H](C)O [MP-541] (Ac-[Lys(N3)][βAla]RTF[R8]EYWLQ[Cba][S5]SAL-NH2; staple 6-13)
EPSA [1]: 224 A^2
logD [2]: 3.58
cell entry EC50 [3, 7]: 210 nM
EC50 ([4]; LDH: Cytotoxicity assay EC50): > 50600 nM
solubility kinetic [5, 8]: 4 µM (≈ 8.39 µg/mL)

CC(=O)N[C@@H](CCCCN=[N+]=[N-])C(=O)NCCC(=O)N[C@@H](CC(C)C)C(=O)N[C@H](C(=O)N[C@@H](Cc1ccccc1)C(=O)N[C@]1(C)CCCCCCC=CCCC[C@@](C)(C(=O)N[C@@H](CO)C(=O)N[C@@H](Cc2ccccc2)C(=O)N[C@@H](Cc2ccccc2)C(N)=O)NC(=O)[C@H](CC2CCC2)NC(=O)[C@H](CCC(N)=O)NC(=O)[C@H](CO)NC(=O)[C@H](Cc2c[nH]c3ccccc23)NC(=O)[C@H](Cc2ccc(O)cc2)NC(=O)[C@H](CCC(=O)O)NC1=O)[C@@H](C)O [MP-545] (Ac-[Lys(N3)][βAla]LTF[R8]EYWSQ[Cba][S5]SFF-NH2; staple 6-13)
EPSA [1]: 241 A^2
Partition Coeff LogD [2]: Poorly Behaved
cell entry EC50 [3, 7]: 137 nM
EC50 ([4]; LDH: Cytotoxicity assay EC50): > 50600 nM
Solubility ([5]; pH 7, PBS): Poorly Behaved

CC(=O)N[C@@H](CCCCN=[N+]=[N-])C(=O)NCCC(=O)N[C@@H](CCCNC(=N)N)C(=O)N[C@H](C(=O)N[C@@H](Cc1ccccc1)C(=O)N[C@]1(C)CCCCCCC=CCCC[C@@](C)(C(=O)N[C@@H](CO)C(=O)N[C@@H](CCCNC(=N)N)C(=O)N[C@@H](C)C(N)=O)NC(=O)[C@H](CC2CCC2)NC(=O)[C@H](CCC(N)=O)NC(=O)[C@H](CCCNC(=N)N)NC(=O)[C@H](Cc2c[nH]c3ccccc23)NC(=O)[C@H](Cc2ccc(O)cc2)NC(=O)[C@H](CCC(=O)O)NC1=O)[C@@H](C)O [MP-539] (Ac-[Lys(N3)][βAla]RTF[R8]EYWRQ[Cba][S5]SRA-NH2; staple 6-13)
EPSA [1]: 222 A^2
logD [2]: 2.4
cell entry EC50 [3, 7]: 293 nM
EC50 ([4]; LDH: Cytotoxicity assay EC50): 13400 nM
solubility kinetic [5, 8]: 97.5 µM (≈ 213 µg/mL)

Source: publication PMC10786919, “Design-rules for stapled peptides with in vivo activity and their application to Mdm2/X antagonists” (Nature Communications, 2024)
